Assay results taken from ChEMBL document CHEMBL1158089, “Indoleamine 2,3-dioxygenase inhibitors from the Northeastern Pacific Marine Hydroid Garveia annulata” (J Nat Prod, 2006).

Target: Indoleamine 2,3-dioxygenase 1 (Homo sapiens, UniProt P14902)
Assay: Inhibition of human indoleamine 2,3-dioxygenase expressed in Escherichia coli by spectrophotometric activity assay

Sequence of Indoleamine 2,3-dioxygenase 1 (P14902 whole entry): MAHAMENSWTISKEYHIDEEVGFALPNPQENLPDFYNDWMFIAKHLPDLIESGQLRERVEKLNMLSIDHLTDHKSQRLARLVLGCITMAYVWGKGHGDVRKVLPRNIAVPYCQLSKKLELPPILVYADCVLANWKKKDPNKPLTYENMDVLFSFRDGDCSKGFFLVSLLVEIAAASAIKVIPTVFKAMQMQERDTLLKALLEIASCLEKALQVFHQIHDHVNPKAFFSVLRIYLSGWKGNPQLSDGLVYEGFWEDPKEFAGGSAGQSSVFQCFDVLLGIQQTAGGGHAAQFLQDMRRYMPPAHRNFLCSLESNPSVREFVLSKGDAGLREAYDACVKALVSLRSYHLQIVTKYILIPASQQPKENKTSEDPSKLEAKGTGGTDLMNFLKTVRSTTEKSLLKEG

Ki	SMILES
1400 nM	CCC1=C(C)C(=O)c2cc3c(c(O)c2C1=O)C(=O)C(C)(O)C(=O)C3(C)C (stereo not drawn)
140 nM	CCc1c(C)cc2c(c1O)C(=O)C1=C(C2=O)C(C)(C)OC1(OC)C(=O)OC (stereo not drawn) [ANNULIN C]
1200 nM	COc1c(C(C)=O)c(C)cc2cc3c(c(O)c12)C(=O)C(C)(C)C(=O)C3(C)C [GARVEATIN C]
